The values below come from PubChem BioAssay AID179 (DTP/NCI, 2004).

The source made the active and inactive calls.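 The calls were made as follows: active = compounds giving half or more protection of infected cells from virus-caused growth loss, again on retest; inactive = the rest.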

The subject of this assay is CEM cells HIV-1 protection, formazan growth assay. Kind of assay: NCI AIDS Antiviral Assay. The note with it: for IC50: measured here: growth of uninfected CEM cells. The method, boiled down: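 Five concentrations of each compound were applied to infected and uninfected human CEM cells. Protection from HIV-1 was judged from growth measured with a soluble formazan assay.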

What is called EC50 is the concentration giving half of the maximal effect. Usually IC50 stands for the midpoint of a concentration-inhibition curve. Higher therefore signals lower potency. In the case of `CC(=O)Nc1oc(C)nc1C#N`, the EC50 is more than 200 µM and the IC50 was more than 200 µM.
Consider `CC(C)=CCN1CCCn2c(=S)[nH]c3cccc(c32)C1`, for which the EC50 was more than 200 µM and the IC50 is more than 200 µM.
Turning to `O=c1[nH]c(Nc2ccc(Cl)cc2)nc2nc[nH]c12`, the EC50 is more than 100 µM and the IC50 came out at 89.1 µM.
In the case of `N#CC(C#N)=C(C#N)C#N`, the EC50 is more than 200 µM and the IC50 was more than 200 µM.
With `C/C(=C\c1ccccn1)c1ccccn1`, the EC50 was more than 200 µM and the 50% inhibitory concentration (IC50) is more than 200 µM.
In the case of `CCOC(=O)CN(c1sc(C)c(C)c1C(=O)OCC)S(=O)(=O)c1ccc(C)cc1`, the EC50 was more than 200 µM and the IC50 is 11.7 µM.
As to `COC1/C=C\C=C(/C)C(=O)NC2=CC(=O)C(NCCCl)=C(CC(C)CC(OC)C(O)C(C)/C=C(/C)C1OC(N)=O)C2=O` (stereo unspecified), the outcome was inactive.
For the compound `CC1(C)C(OC(=O)c2ccccc2)C[C@]23CCC[C@](C)(C[C@@H](O)C12)C3` (stereo partly specified), the EC50 was more than 200 µM and the IC50 turned out to be 24 µM.
Consider `C[n+]1c(-c2ccc(/C=C/C=N\NC(=O)c3ccc(C(=O)N/N=C\C=C\c4ccc(-c5cn6ccccc6[n+]5C)cc4)cc3)cc2)cn2ccccc21`, for which the EC50 was more than 9.77 µM and the half-inhibitory concentration (IC50) was more than 9.77 µM.
With `CCCCCCCCCCCCCCCCCCCCC(C(=O)OCC)S(=O)(=O)O` (stereo unspecified), the EC50 is more than 100 µM and the concentration for half-maximal inhibition (IC50) worked out at 19.5 µM.
As to `CC1CC2CC(=O)CC3(C1)C2CCCN3CCCO` (stereo unspecified), the outcome was inactive.
As to `Cn1nc(Cc2ccc(Cl)cc2)n(N)c1=O`, the EC50 is more than 200 µM and the IC50 was more than 200 µM.
In the case of `COc1ccc(SSc2ccc(OC)cc2)cc1`, the EC50 was more than 200 µM and the concentration for half-maximal inhibition (IC50) was more than 200 µM.
As to `Cn1c(=O)oc2cc(C(=S)N3CCC(Cc4ccccc4)CC3)ccc21`, the EC50 was more than 200 µM and the IC50 was more than 200 µM.
Turning to `CC12OC3(C)OC(=O)C(c4ccccc4)(O1)C3(C)O2` (stereo unspecified), the result was inactive.
In the case of `CN(C)Cc1ccccc1CCO`, the EC50 is more than 200 µM and the IC50 was more than 200 µM.
As for `O=C(O)c1c[nH]n2c(=S)ncnc12`, the EC50 is more than 871 µM and the IC50 is more than 871 µM.
Turning to `Cc1ccc(-n2c3nc(=O)n(C)c(=O)c-3nc3ccccc32)c(C)c1`, the result was inactive.
Still for that read-out and setting: the same measure for `COc1ccc(/C=N/N=C(N)N)c(C(=O)O)c1OC`: “inactive”.
Turning to `c1cc(NC2=NCCO2)c2c(c1)OCO2`, the EC50 is more than 200 µM and the IC50 was more than 200 µM.
Turning to `O=CN1CCN(C=O)C(O)C1O` (stereo unspecified), the EC50 is more than 200 µM and the concentration for half-maximal inhibition (IC50) is more than 200 µM.
Take `COc1cc2c(OC)cc1CSCc1sc(C)c(c1Br)CSC2`: the EC50 was more than 11.5 µM and the IC50 is more than 11.5 µM.
Take `CC1=C(C(=O)Nc2ccccc2C)C(c2ccc(C3C(C(=O)Nc4ccccc4C)=C(C)NC(C)=C3C(=O)Nc3ccccc3C)cc2)C(C(=O)Nc2ccccc2C)=C(C)N1`: the outcome was inactive.
For `CC(C)(C)C(=O)OCOP(=O)(OCOC(=O)C(C)(C)C)OCC1OC(n2cc(F)c(=O)[nH]c2=O)CC1O` (stereo unspecified), the EC50 is more than 151 µM and the 50% inhibitory concentration (IC50) came out at 2.09 µM.
Turning to `c1cnn(P2(n3cccn3)=NP(n3cccn3)(n3cccn3)=NP(n3cccn3)(n3cccn3)=NP(n3cccn3)(n3cccn3)=NP(n3cccn3)(n3cccn3)=NP(n3cccn3)(n3cccn3)=N2)c1`, the EC50 is more than 200 µM and the half-maximal inhibitory concentration (IC50) is more than 200 µM.
As to `CCN1C[C@]2(COC)CCC(O)C34[C@@H]5C[C@@H]6C(OC(C)=O)[C@@H]5[C@](OC(C)=O)(C[C@@H]6OC)[C@@H](C(OC)[C@@H]32)[C@H]14` (stereo partly specified), the result was inactive.
In the case of `COc1ccc(/C(C#N)=C/c2ccccc2)cc1`, the EC50 was more than 200 µM and the IC50 stood at 10.7 µM.
Regarding `O=[N+]([O-])/C(C(Cl)=C(Cl)Cl)=C1\NCCS1`, the EC50 is more than 200 µM and the IC50 is more than 100 µM.
As to `COc1ccc(CNc2nc3cc(C(F)(F)F)ccc3nc2C)cc1OC`, the EC50 is more than 19.1 µM and the half-inhibitory concentration (IC50) was 14.5 µM.
For `COC(=O)C1CCC(=O)C(Sc2ccccc2)C1` (stereo unspecified), the EC50 is more than 97.7 µM and the IC50 was 43.7 µM.
For `CCC[CH2][Sn]1([CH2]CCC)[N](S(=O)(=O)c2ccc(C)cc2)c2ccccc2[N]1S(=O)(=O)c1ccc(C)cc1`, the EC50 is more than 2 µM and the concentration for half-maximal inhibition (IC50) amounted to 0.309 µM.
Take `c1ccc(C2CCCNCC2)cc1` (stereo unspecified): the result was inactive.
`CC1C2c3ccccc3C(c3ccccc32)C1CN1C(CCO)COC1c1ccccc1` (stereo unspecified): the EC50 was more than 200 µM and the concentration for half-maximal inhibition (IC50) is 38 µM.
On the same counts, the results for `CC(c1cccc2ccccc12)/[N+]([O-])=C/c1ccccc1` (stereo unspecified) are more than 182 µM and 162 µM.
In the case of `CC(C)(CCCCC(C)(C)NC1=NCCO1)NC1=NCCO1`, the EC50 is more than 200 µM and the IC50 was 77.6 µM.
On to `CC(C)(N)C(=O)N[C@@H]1C(=O)N2[C@@H]1SC(C)(C)[C@@H]2C(=O)O`, for which the EC50 was more than 200 µM and the concentration for half-maximal inhibition (IC50) is more than 200 µM.
On to `COc1cccc2c1C(=O)C1(O)CCCCC21` (stereo unspecified), for which the EC50 is 44.7 µM and the IC50 is more than 200 µM.
For `CCOC(=O)c1c(-c2ccc(OC)c(O)c2)c(C#N)c(=S)n(C2OC(CO)C(O)C(O)C2O)c1-c1ccccc1` (stereo unspecified), in that order: more than 200 µM and more than 200 µM.
Take `CCN(CC)CCCCCCNc1cc(OC)cc2c(C)ccnc12`: the EC50 is more than 603 µM and the half-maximal inhibitory concentration (IC50) turned out to be 19.5 µM.
On the same counts, the results for `Cn1c(=O)c2nc(NCc3ccccc3)sc2n(C)c1=O` are more than 61.7 µM and more than 61.7 µM.
For `COC(=O)C(=O)C1CSC2=C(CS(=O)(=O)c3ccccc32)C1=O` (stereo unspecified), in that order: more than 200 µM and more than 200 µM.
With `COC(=O)C1C(O)CC(c2ccccn2)N(Cc2ccccc2)C1c1ccccn1` (stereo unspecified), the EC50 is more than 89.1 µM and the IC50 is 83.2 µM.
On the same counts, the results for `O=C(O)C1COCN1C(=O)c1cccnc1SSc1ncccc1C(=O)N1COCC1C(=O)O` (stereo unspecified) are more than 200 µM and more than 200 µM.
Turning to `CC(CCCOC(c1ccccc1)(c1ccccc1)c1ccccc1)OC(=O)Nc1cc([N+](=O)[O-])cc([N+](=O)[O-])c1` (stereo unspecified), the EC50 is more than 12.9 µM and the half-inhibitory concentration (IC50) was more than 12.9 µM.
Regarding `COc1cccc2c1C(=O)c1c(O)c3c(c(O)c1C2=O)C[C@@](O)(C(=O)CO)C[C@@H]3OC1CC(N)C(OC)C(C)O1` (stereo partly specified), the EC50 was more than 0.2 µM and the concentration for half-maximal inhibition (IC50) was 0.0195 µM.
In the case of `O=C1OCC2=Nc3cccc4cccc(c34)N12`, the EC50 is more than 0.676 µM and the half-inhibitory concentration (IC50) was 0.331 µM.
For `CN(c1ccc(Cl)cc1)S(=O)(=O)c1ccccc1`, in that order: more than 200 µM and 50.1 µM.
For the compound `O=c1[nH]c(=O)n(C2OC(CO)C(O)C2O)cc1OCCCc1ccccc1` (stereo unspecified), the EC50 is more than 200 µM and the IC50 was more than 200 µM.
For the compound `CCCCCCCCCCCCCCCCCCOCC(O)COP(=O)(O)OCC1OC(n2cc(C)c(=O)[nH]c2=O)CC1N=[N+]=[N-]` (stereo unspecified), the EC50 is more than 100 µM and the IC50 was determined as 31.6 µM.
On the same counts, the results for `O=C(Nc1ccccc1S)OCc1ccccc1` are 34.7 µM and 46.8 µM.
With `CCOC1CN=C(Nc2cccc3ccccc23)S1` (stereo unspecified), the EC50 is more than 200 µM and the IC50 worked out at 162 µM.
For `O=C1C(Cl)=CC(=C2C=C(Cl)C(=O)C(Cl)=C2)C=C1Cl`, in that order: more than 200 µM and 42.7 µM.
On the same counts, the results for `Cc1ccc(C(=O)c2ccccc2C(=O)O)c(C)c1` are more than 200 µM and more than 200 µM.
For `NCCCCN(CCCN)Cc1ccc2ccccc2c1`, in that order: more than 200 µM and 72.4 µM.
As for `CCOC(=O)c1ccc(-n2nc(C)cc(Cl)c2=O)cc1`, the EC50 was more than 123 µM and the IC50 worked out at 23.4 µM.
Regarding `Cc1ccc(SS(=O)(=O)c2ccc(C)cc2)cc1`, the EC50 is more than 38 µM and the IC50 is 6.61 µM.
In the case of `CCOC(=O)/C=C(/CN1C(=O)c2ccccc2C1=O)c1ccccc1`, the result was inactive.
For `CC(C)=CCN1Cc2cccc([N+](=O)[O-])c2NC[C@@H]1C`, the EC50 is more than 85.1 µM and the half-inhibitory concentration (IC50) was more than 85.1 µM.
Take `CC1=C2[C@@H](c3ccccc3)C3C=CC2(c2ccccc23)N(C(=O)Nc2cccc3ccccc23)C1=O` (stereo partly specified): the EC50 is more than 5.75 µM and the IC50 is more than 5.75 µM.
As to `CC1(c2ccccc2)Sc2ccccc2-n2cccc2C1=O` (stereo unspecified), the EC50 was 1.05 µM and the IC50 worked out at 3.8 µM.
With `CC(/C=C/C(O)=C1/C(=O)CNC1=O)=C\[C@@H](C)[C@H]1O[C@@]2(C)O[C@H](C(=O)[C@@H]3O[C@@]32C)[C@@H]1C`, the EC50 is more than 200 µM and the IC50 is 91.2 µM.
With `CCOC(=O)C1CC(C(=O)c2ccccc2)N2c3ccccc3-c3ccccc3C12` (stereo unspecified), the EC50 is more than 200 µM and the IC50 was 8.51 µM.
Consider `C[C@]12CCNC(=O)C=C1CC[C@@H]1C2CC[C@@]2(C)C1CC[C@@H]2O` (stereo partly specified), for which the outcome was inactive.
Consider `CC(=O)OC1CCC2(C)C(C1)CC(OC(C)=O)C1C2CC(OC(C)=O)C2(C)C(C(C)CC=C(c3ccccc3)c3ccccc3)CCC12` (stereo unspecified), for which the EC50 was more than 7.94 µM and the IC50 was determined as 5.01 µM.
Regarding `CC1C(c2ccccc2)OCN1CC=C(c1ccsc1)c1ccsc1` (stereo unspecified), the EC50 is more than 200 µM and the IC50 was 15.1 µM.
As to `COc1ccc2oc(C(=O)O)c3c2c1CCC3`, the result was inactive.
Take `Cc1ccc(-c2c(C#N)c(-c3ccc(Cl)cc3)c(C#N)c(=O)n2NS(=O)(=O)c2ccc(C)cc2)cc1`: the EC50 was more than 200 µM and the IC50 amounted to 20.9 µM.
For `CN1[C@H]2C=CC(=O)[C@]1(Cl)[C@H]1C(=O)N(c3ccccc3)C(=O)[C@@H]21`, in that order: more than 162 µM and 3.89 µM.
For `O=C1C=C2C(=CCOC2O)O1` (stereo unspecified), in that order: more than 16.2 µM and 0.191 µM.
On the same counts, the results for `O=C(NC1CCCCC1)/C(=C\c1ccccc1)NC(=O)c1ccccc1` are more than 200 µM and more than 200 µM.
As for `CC1(C)CCCC2(C)C3=C(CCC12)C(=O)OC3` (stereo unspecified), the EC50 is more than 30.9 µM and the half-maximal inhibitory concentration (IC50) was more than 30.9 µM.
